Reference: ChEMBL document CHEMBL1148239, “Studies on intestinal permeability of cirrhotic patients by analysis lactulose and mannitol in urine with HPLC/RID/MS” (Bioorg Med Chem Lett, 2004)
Values joined by “and” are separate entries in the source; they are usually repeats but may differ in a detail not shown here. Equal entries are not always repeated.

Tests used:
[1] = system: Homo sapiens; assay: Ratio of percent compound before dosing in cirrhotic patients of spontaneous ascitic fluid infection; format: ADME, organism-based; conditions: in vivo
[2] = Percent of compound in cirrhotic patients of sterile ascitic fluid (Group C); format: ADME; conditions: human
[3] = Percent recovery of 100 ug/mL compound after administration in cirrhotic patients; format: ADME; conditions: human, in vivo
[4] = species: Homo sapiens; assay: Ratio of lactulose and mannitol in cirrhotic patients of spontaneous ascitic fluid infection (Group A and B); format: ADME, organism-based; conditions: in vivo
[5] = Percent of compound in cirrhotic patients of spontaneous ascitic fluid infection after dosing with normal antibiotics and lactose; format: ADME; conditions: human, in vivo
[6] = Percent of compound in cirrhotic patients of spontaneous ascitic fluid infection after dosing with normal antibiotics; format: ADME; conditions: human, in vivo
[7] = system: Homo sapiens; assay: Ratio of percent compound before and after dosing in cirrhotic patients of spontaneous ascitic fluid infection; format: ADME, organism-based; conditions: in vivo
[8] = Percent of compound in cirrhotic patients of spontaneous ascitic fluid infection (Group A and B); format: ADME; conditions: human
[9] = species: Homo sapiens; assay: Ratio of lactulose and mannitol in cirrhotic patients of sterile ascitic fluid (Group C); format: ADME, organism-based; conditions: in vivo
[10] = species: Homo sapiens; assay: Ratio of lactulose and mannitol in healthy individuals (Group D); format: ADME, organism-based; conditions: in vivo
[11] = system: Homo sapiens; assay: Ratio of percent compound after dosing in cirrhotic patients of spontaneous ascitic fluid infection; format: ADME, organism-based; conditions: in vivo
[12] = Percent of compound in cirrhotic patients of spontaneous ascitic fluid infection before dosing with normal antibiotics; format: ADME; conditions: human, in vivo
[13] = Percent of compound in cirrhotic patients of spontaneous ascitic fluid infection before dosing with normal antibiotics and lactose; format: ADME; conditions: human, in vivo
[14] = Percent recovery of 10 ug/mL compound after administration in cirrhotic patients; format: ADME; conditions: human, in vivo
[15] = Percent of compound in healthy individuals (Group D); format: ADME; conditions: human
[16] = Percent recovery of 500 ug/mL compound after administration in cirrhotic patients; format: ADME; conditions: human, in vivo

Row | Structure (SMILES) | Ratio [1] | Activity [2] | Recovery [3] | Ratio [4] | Activity [5] | Activity [6] | Ratio [7] | Activity [8] | Ratio [9] | Ratio [10] | Ratio [11] | Activity [12] | Activity [13] | Recovery [14] | Activity [15] | Recovery [16]
1 | OC[C@@H](O)[C@@H](O)[C@H](O)[C@H](O)CO [MANNITOL] | 0.1009 | 0.0691% | 95.2% | 0.1003 | 0.0732% | 0.0782% | 0.0985 | 0.0741% | 0.0715 | 0.0209 | 0.0814 and 0.0572 | 0.0735% | 0.0733% | 93.3% | 0.0838% | 97.1%
2 | OC[C@H]1O[C@@H](O[C@@H]2[C@@H](CO)O[C@](O)(CO)[C@H]2O)[C@H](O)[C@@H](O)[C@H]1O [LACTULOSE] | 0.1009 | 0.00476% | 93.7% | 0.1003 | 0.0044% | 0.006% | 0.1009 | 0.00719% | 0.0715 | 0.0209 | 0.0814 and 0.0572 | 0.007% | 0.0071% | 93.1% | 0.00177% | 97%
